US8697641B2, “4-amino-4-oxobutanoyl peptide cyclic analogues, inhibitors of viral replication” (Achillion Pharmaceuticals, Inc., priority 2008, dated 2014)

System: Hepatitis C replicon
Assay: HCV replicon assay (NPT ELISA readout) in Huh-7 replicon-containing cells
Type: cell-based, Hepatitis C virus
Conditions: Hepatitis C virus, 72 h; HCV replicon in Huh-7 cells, three days incubation
Procedure: Compounds claimed herein are tested for the ability to inhibit viral replication of the Hepatitis C replicon in cultured cells in which the HCV replicon construct has been incorporated. The HCV replicon system was described by Bartenschlager, et. al (Science, 285, pp. 110-113 (1999)). The replicon system is predictive of in vivo anti-HCV activity; compounds that are active in humans uniformly evidence activity in the replicon assay.
In this assay HCV replicon containing cells are treated with different concentrations of the test compound to ascertain the ability of the test compound to suppress replication of the HCV replicon. As a positive control, HCV replicon-containing cells are treated with different concentrations of interferon alpha, a known inhibitor of HCV replication. The replicon assay system includes Neomycin Phosphotransferase (NPT) as a component of the replicon itself in order to detect the transcription of replicon gene products in the host cell. Cells in which the HCV replicon is actively replicating have high levels of NPT; the level of NPT is proportional to HCV replication. […] The NPT level of each sample is measured using a captured ELISA.
A protocol for testing compounds for the ability to inhibit viral replication of the Hepatitis C replicon cultured cells in which the replicon construct has been incorporated, follows.
The HCV replicon contains, 5′-3′, the HCV-IRES, the neomycin phosphotransferase (neo) gene, the IRES of encephalomyocarditis virus, which directs translation of HCV sequences NS3 to NS5B, and the 3′-NTR. The sequence of the HCV replicon has been deposited in GenBank (Accession no. AJ242652).
The replicon is transfected into Huh-7 cells using standard methods such as electroporation.
The equipment and materials include, but are not limited to, Huh-7 HCV replicon-containing cells, maintenance media (DMEM (Dulbecco's modified Eagle media) supplemented with 10% FBS, L-glutamine, non-essential amino acids, penicillin (100 units/ml), streptomycin (100 micrograms/ml), and 500 micrograms/ml of Geneticin (G418), screening media (DMEM supplemented with 10% FBS, L-glutamine, non-essential amino acids, penicillin (100 units/ml) and streptomycin (100 micrograms/ml)), 96 well tissue culture plates (flat bottom), 96 well plates (U bottom for drug dilution), Interferon alpha for positive control, fixation reagent (such as methanol:acetone), primary antibody (rabbit anti-NPTII), secondary antibody: Eu-N1 l, and enhancement solution.
The cells are then seeded onto 96-well plates at a density of 6000-7500 cells/100 microliters/well (6-7.5×10^5 cells/10 ml/plate). The plates are then incubated at 37° C. in a 5% CO2 incubator.
HCV replicon-containing cells are rinsed with once PBS once; 2 mls of trypsin are then added. Cells are incubated at 37° C. in a 5% CO2 incubator for 3-5 minutes. 10 mls of complete medium is added to stop the reaction. Cells are blown gently, put into a 15 ml tube, and spun at 1200 rpm for four minutes. The trypsin/medium solution is removed and 5 mls of medium (500 ml DMEM (high glucose)) from BRL catalog #12430-054; 50 mls 10% FBS, 5% Geneticin G418 (50 mg/ml, BRL catalog #10131-035), 5 ml MEM non-essential amino acids (100×BRL #11140-050) and 5 ml pen-strep (BRL #15140-148) is added. The cells and media are mixed carefully
Cells are plated with screening medium (500 ml DMEM (BRL #21063-029), 50 ml FBS (BRL #10082-147) and 5 ml MEM non-essential amino acid (BRL #11140-050) at 6000-7500 fcells/100 μl/well of 96 well plate (6-7.5×10^5 cells/10 ml/plate). Plates are placed into 37° C. 5% CO2 incubator overnight.
The following morning, drugs (test compounds or interferon alpha) are diluted in 96 well U bottom plates with media or DMSO/media, depending on the final concentration chosen for screening. Generally for 6 concentrations of each test compounds ranging from 10 micromolar to 0.03 micromolar are applied. […]

Structure (SMILES)	EC50 [nM]
COc1ccc2c(O[C@@H]3C[C@H]4C(=O)N[C@]5(C(=O)NS(=O)(=O)C6CC6)C[C@H]5/C=C\CCCCC[C@H](CC(=O)N5CCCC5)C(=O)N4C3)cc(-c3ccccc3)nc2c1 [Compound 55, (2R,6R,13aS, 14aR,16aS,Z)-N-(cyclopropylsulfonyl)-2-(7-methoxy-2-phenylquinolin-4-yloxy)-5,16-dioxo-6-(2-oxo-2-(pyrrolidin-1-yl)ethyl)-1,2,3,5,6,7,8,9,10,11, 13a,14,14a,15,16,16a-hexadecahydrocyclopropa [e]pyrrolo[1,2-a][1,4] diazacyclopentadecine-14a-carboxamide]	< 1000
COc1ccc2c(O[C@@H]3C[C@H]4C(=O)N[C@@H](C(=O)NS(=O)(=O)C5CC5)C/C=C\CCCCC[C@H](CC(=O)N5CCCCC5)C(=O)N4C3)cc(-c3ccccc3)nc2c1 [Compound 56, (3R,12R,16R,17aS, Z)-N-(cyclopropylsulfonyl)-16-(7-methoxy-2-phenylquinolin-4-yloxy)-1,13-dioxo-12-(2-oxo-2-(piperidin-1-yl)ethyl)-2,3,4,7,8,9,10,11, 12,13,15,16,17,17a-tetradecahydro-1H-pyrrolo[1,2-a][1,4] diazacyclopentadecine-3-carboxamide]	1000 to 10000
COc1ccc2c(O[C@@H]3C[C@H]4C(=O)N[C@H](C(=O)NS(=O)(=O)C5CC5)C/C=C\CCCCC[C@H](CC(=O)N5CCCCC5)C(=O)N4C3)cc(-c3ccccc3)nc2c1 [Compound 57, (3S,12R,16R,17aS,Z)-N-(cyclopropylsulfonyl)-16-(7-methoxy-2-phenylquinolin-4-yloxy)-1,13-dioxo-12-(2-oxo-2-(piperidin-1-yl)ethyl)-2,3,4,7,8,9,10,11, 12,13,15,16,17,17a-tetradecahydro-1H-pyrrolo[1,2-a][1,4] diazacyclopentadecine-3-carboxamide]	1000 to 10000
COc1ccc2c(O[C@@H]3C[C@H]4C(=O)N[C@]5(C(=O)NS(=O)(=O)C6CC6)C[C@H]5/C=C\CCCCC[C@H](CC(=O)O)C(=O)N4C3)cc(-c3ccccc3)nc2c1 [Compound 59, 2-((2R,6R,13aS, 14aR,16aS,Z)-14a-(cyclopropylsulfonyl-carbamoyl)-2-(7-methoxy-2-phenylquinolin-4-yloxy)-5,16-dioxo-1,2,3,5,6,7,8,9,10,11, 13a,14,14a,15,16,16a-hexadecahydrocyclopropa [e]pyrrolo[1,2-a][1,4]diazacyclopentadecin-6-yl)acetic acid]	< 1000
COc1ccc2c(O[C@@H]3C[C@H]4C(=O)N[C@]5(C(=O)NS(=O)(=O)C6CC6)C[C@H]5/C=C\CCCCC[C@H](CC(=O)N5CCOCC5)C(=O)N4C3)cc(-c3ccccc3)nc2c1 [Compound 60, (2R,6R,13aS, 14aR,16aS,Z)-N-(cyclopropylsulfonyl)-2-(7-methoxy-2-phenylquinolin-4-yloxy)-6-(2-morpholino-2-oxoethyl)-5,16-dioxo-1,2,3,5,6,7,8,9,10,11, 13a,14,14a,15,16,16a-hexadecahydrocyclopropa [e]pyrrolo[1,2-a][1,4] diazacyclopentadecine-14a-carboxamide]	< 1000
COc1ccc2c(O[C@@H]3C[C@H]4C(=O)N[C@]5(C(=O)NS(=O)(=O)C6CC6)C[C@H]5/C=C\CCCCC[C@H](CC(=O)N5CCC(F)(F)CC5)C(=O)N4C3)cc(-c3ccccc3)nc2c1 [Compound 61, (2R,6R,13aS, 14aR,16aS,Z)-N-(cyclopropylsulfonyl)-6-(2-(4,4-difluoropiperidin-1-yl)-2-oxoethyl)-2-(7-methoxy-2-phenylquinolin-4-yloxy)-5,16-dioxo-1,2,3,5,6,7,8,9,10,11, 13a,14,14a,15,16,16a-hexadecahydrocyclopropa [e]pyrrolo[1,2-a][1,4] diazacyclopentadecine-14a-carboxamide]	< 1000
COc1ccc2c(O[C@@H]3C[C@H]4C(=O)N[C@]5(C(=O)NS(=O)(=O)C6CC6)C[C@H]5/C=C\CCCCC[C@H](CC(=O)N5CCC(C(F)(F)F)CC5)C(=O)N4C3)cc(-c3ccccc3)nc2c1 [Compound 62, (2R,6R,13aS, 14aR,16aS,Z)-N-(cyclopropylsulfonyl)-2-(7-methoxy-2-phenylquinolin-4-yloxy)-5,16-dioxo-6-(2-oxo-2-(4-(trifluoromethyl)piperidin-1-yl)ethyl)-1,2,3,5,6,7,8,9,10,11, 13a,14,14a,15,16,16a-hexadecahydrocyclopropa [e]pyrrolo[1,2-a][1,4] diazacyclopentadecine-14a-carboxamide]	< 1000
COc1ccc2c(O[C@@H]3C[C@H]4C(=O)N[C@]5(C(=O)NS(=O)(=O)C6CC6)C[C@H]5/C=C\CCCCC[C@H](CC(=O)N5CCC(F)(F)C5)C(=O)N4C3)cc(-c3ccccc3)nc2c1 [Compound 63, (2R,6R,13aS, 14aR,16aS,Z)-N-(cyclopropylsulfonyl)-6-(2-(3,3 - difluoropyrrolidin-1-yl)-2-oxoethyl)-2-(7-methoxy-2-phenylquinolin-4-yloxy)-5,16-dioxo-1,2,3,5,6,7,8,9,10,11, 13a,14,14a,15,16,16a-hexadecahydrocyclopropa [e]pyrrolo[1,2-a][1,4] diazacyclopentadecine-14a-carboxamide]	< 1000
COc1ccc2c(O[C@@H]3C[C@H]4C(=O)NC(C)(C(=O)O)C/C=C\CCCCC[C@H](CC(=O)N5CCCCC5)C(=O)N4C3)cc(-c3ccccc3)nc2c1 (stereo partly drawn) [Compound 64, (12R,16R,17aS,Z)-16-(7-methoxy-2-phenylquinolin-4-yloxy)-3-methyl-1,13-dioxo-12-(2-oxo-2-(piperidin-1-yl)ethyl)-2,3,4,7,8,9,10,11, 12,13,15,16,17,17a-tetradecahydro-1H-pyrrolo[1,2-a][1,4] diazacyclopentadecine-3-carboxylic acid]	1000 to 10000
COc1ccc2c(O[C@@H]3C[C@H]4C(=O)N[C@@](C)(C(=O)NS(=O)(=O)C5CC5)C/C=C\CCCCC[C@H](CC(=O)N5CCCCC5)C(=O)N4C3)cc(-c3ccccc3)nc2c1 [Compound 65, (3R,12R,16R,17aS,Z)-N-(cyclopropylsulfonyl)-16-(7-methoxy-2-phenylquinolin-4-yloxy)-3-methyl-1,13-dioxo-12-(2-oxo-2-(piperidin-1-yl)ethyl)-2,3,4,7,8,9,10, 11,12,13,15,16,17,17a-tetradecahydro-1H-pyrrolo[1,2-a][1,4] diazacyclopentadecine-3-carboxamide]	1000 to 10000
COc1ccc2c(O[C@@H]3C[C@H]4C(=O)N[C@](C)(C(=O)NS(=O)(=O)C5CC5)C/C=C\CCCCC[C@H](CC(=O)N5CCCCC5)C(=O)N4C3)cc(-c3ccccc3)nc2c1 [Compound 66, (3S,12R,16R,17aS,Z)-N-(cyclopropylsulfonyl)-16-(7-methoxy-2-phenylquinolin-4-yloxy)-3-methyl-1,13-dioxo-12-(2-oxo-2-(piperidin-1-yl)ethyl)-2,3,4,7,8,9,10, 11,12,13,15,16,17,17a-tetradecahydro-1H-pyrrolo[1,2-a][1,4] diazacyclopentadecine-3-carboxamide]	1000 to 10000
COc1ccc2c(O[C@@H]3C[C@H]4C(=O)N[C@]5(C(=O)NS(=O)(=O)C6CC6)C[C@H]5/C=C\CCCCC[C@H](CC(=O)N5CCN(C(=O)OC(C)(C)C)CC5)C(=O)N4C3)cc(-c3ccccc3)nc2c1 [Compound 67, tert-butyl 4-(2-((2R,6R, 13aS,14aR,16aS,Z)-14a-(cyclopropylsulfonyl-carbamoyl)-2-(7-methoxy-2-phenylquinolin-4-yloxy)-5,16-dioxo-1,2,3,5,6,7,8,9,10,11, 13a,14,14a,15,16,16a-hexadecahydrocyclopropa [e]pyrrolo[1,2-a][1,4]diazacyclopentadecin-6-yl)acetyl)piperazine-1-carboxylate]	< 1000
